What was measured:
Carbonic anhydrase [1] = molecular target: T1, Carbonic anhydrase (Methanosarcina thermophila, UniProt P40881)
T1 sequence (P40881 whole entry): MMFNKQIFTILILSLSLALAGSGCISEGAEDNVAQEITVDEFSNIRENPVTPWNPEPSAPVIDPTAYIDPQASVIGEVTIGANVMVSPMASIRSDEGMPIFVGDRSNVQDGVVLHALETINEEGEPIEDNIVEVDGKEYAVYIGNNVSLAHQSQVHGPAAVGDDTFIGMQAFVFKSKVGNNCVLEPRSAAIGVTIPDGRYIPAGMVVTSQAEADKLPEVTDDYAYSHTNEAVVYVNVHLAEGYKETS

Carbonic anhydrase [2] = molecular target: T2, Carbonic anhydrase (Methanobacterium thermoautotrophicum, UniProt Q50565)
T2 sequence (Q50565 whole entry): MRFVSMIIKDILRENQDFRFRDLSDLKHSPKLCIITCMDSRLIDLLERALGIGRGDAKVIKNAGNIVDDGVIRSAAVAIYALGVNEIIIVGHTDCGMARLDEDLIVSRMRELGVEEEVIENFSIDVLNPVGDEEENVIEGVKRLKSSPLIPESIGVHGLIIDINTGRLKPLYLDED

Carbonic anhydrase [3] = molecular target: T1, Carbonic anhydrase; remark: listed apart in the source

Row | SMILES | Ki (Carbonic anhydrase [1]) | Ki (Carbonic anhydrase [2]) | Ki (Carbonic anhydrase [3])
1 | Nc1ccc(S(=O)(=O)NCc2ccc(S(N)(=O)=O)cc2)cc1 | 180 nM | 52.4 µM | 6360 nM
2 | Nc1cccc(S(N)(=O)=O)c1 | 170 nM | 14.3 µM | 1240 nM
3 | NCCc1ccc(S(N)(=O)=O)cc1 |  | 25.7 µM | 
4 | Nc1ccc(S(N)(=O)=O)cc1Cl | 140 nM |  | 740 nM
5 | Nc1cc(C(F)(F)F)c(S(N)(=O)=O)cc1S(N)(=O)=O [2,4-DISULFAMYLTRIFLUOROMETHYLANILINE] |  | 50 µM | 
6 | Cc1ccc(-c2cc(C(F)(F)F)nn2-c2ccc(S(N)(=O)=O)cc2)cc1 [CELECOXIB] | 140 nM | 38.5 µM | 1010 nM
7 | CCOc1ccc2nc(S(N)(=O)=O)sc2c1 [ETHOXZOLAMIDE] |  |  | 740 nM
8 | NCc1ccc(S(N)(=O)=O)cc1 [MAFENIDE] | 350 nM | 28.5 µM | 8500 nM
9 | NS(=O)(=O)O [SULFAMATE] | 90 nM | 103000 µM | 3360 nM
10 | NS(N)(=O)=O [SULFAMIDE] |  | 440000 µM | 5960 nM
11 | Nc1ccc(S(N)(=O)=O)cc1 [SULFANILAMIDE] | 250 nM | 57.8 µM | 3930 nM

Results, then the compound that gave them:

Row | Ki (Carbonic anhydrase [1]) | Ki (Carbonic anhydrase [2]) | Ki (Carbonic anhydrase [3]) | SMILES
12 | 280 nM | 98 µM | 660 nM | Nc1ccc(S(N)(=O)=O)cc1I
13 | 1720 nM | 77 µM | 280 nM | Nc1ccc(S(N)(=O)=O)cc1Br
14 | 970 nM | 53.4 µM | 420 nM | Nc1ccc(S(N)(=O)=O)cc1F
15 | 2200 nM | 127 µM | 220 nM | NNc1ccc(S(N)(=O)=O)cc1
16 |  | 23.5 µM | 120 nM | CC1(C)O[C@@H]2[C@@H](CO[C@@]3(COS(N)(=O)=O)OC(C)(C)O[C@@H]23)O1 [TOPIRAMATE]
